According to US20210236575A1 (priority 2018, published 2021):
Like-named read-outs stand apart in the source and are kept apart here.

Tests used:
NF-κB = NF-κB luciferase assay, TNFα-induced, NIH-3T3-KBF-Luc cells
CB1R [1] = target: T1, CB1R (Homo sapiens, UniProt P21554); experiment: cell-based
T1 construct: expressed in transfected cells; host or cells: HEK293T (HEK293T-CB1), transiently co-transfected with CRE-luc reporter

COX-2 = target: T2, COX-2 (Homo sapiens, UniProt P35354); settings: Takeda et al 2008; cited from earlier work
T2 sequence (P35354 18-604): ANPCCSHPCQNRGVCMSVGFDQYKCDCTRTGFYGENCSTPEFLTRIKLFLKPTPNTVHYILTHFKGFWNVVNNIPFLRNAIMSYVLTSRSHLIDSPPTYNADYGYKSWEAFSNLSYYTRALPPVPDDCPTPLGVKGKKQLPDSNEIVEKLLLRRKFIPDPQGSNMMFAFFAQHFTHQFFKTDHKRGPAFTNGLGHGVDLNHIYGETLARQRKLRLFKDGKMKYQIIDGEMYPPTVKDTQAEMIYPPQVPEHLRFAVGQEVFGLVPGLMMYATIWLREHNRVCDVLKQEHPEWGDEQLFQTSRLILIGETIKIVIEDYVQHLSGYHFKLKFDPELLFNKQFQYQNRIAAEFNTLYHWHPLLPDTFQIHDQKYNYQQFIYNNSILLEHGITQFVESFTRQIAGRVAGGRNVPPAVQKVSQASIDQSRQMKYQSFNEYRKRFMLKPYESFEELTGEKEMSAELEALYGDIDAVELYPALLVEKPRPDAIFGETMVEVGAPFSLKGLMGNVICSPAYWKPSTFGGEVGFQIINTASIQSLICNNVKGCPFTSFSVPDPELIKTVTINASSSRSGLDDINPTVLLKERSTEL

CB1R [2] = target: T1, CB1R; type: cell-based
CB2R = CB2R (Homo sapiens, UniProt P34972); experiment: CB2R agonism assay, HEK293T-CB2 cells with CRE-Luc reporter, forskolin-stimulated; settings: for Conclusions: Is CB2R agonist effect observed? / Experiment 1 % of activity / Experiment 2 % of activity / Experiment 3 % of activity: THC 10 μM or THCA 10 μM alone; for Experiment 1 % of activity / Experiment 2 % of activity / Experiment 3 % of activity: forskolin = 100%
[3] = read-out: Experiment 1 % of activity
[4] = read-out: Experiment 2 % of activity
[5] = read-out: Experiment 3 % of activity
[6] = THC 10 μM or CBD 10 μM alone, TNFα = 100%
[7] = THCA 10 μM or THC 10 μM alone, CP55940 = 100%
[8] = TNFα 30 ng/mL (control without inhibitor)

Chain of CB2R (P34972 whole entry): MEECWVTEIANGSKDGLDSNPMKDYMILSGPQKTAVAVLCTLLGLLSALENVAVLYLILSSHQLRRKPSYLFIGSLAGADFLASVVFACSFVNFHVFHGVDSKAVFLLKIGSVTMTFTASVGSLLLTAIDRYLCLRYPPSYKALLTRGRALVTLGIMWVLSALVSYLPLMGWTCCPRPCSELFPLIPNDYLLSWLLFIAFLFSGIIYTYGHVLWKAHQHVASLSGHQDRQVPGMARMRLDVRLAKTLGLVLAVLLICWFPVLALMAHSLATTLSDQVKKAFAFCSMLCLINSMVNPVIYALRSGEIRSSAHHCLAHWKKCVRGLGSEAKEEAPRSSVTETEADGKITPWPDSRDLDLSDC
T1 sequence (P21554 whole entry): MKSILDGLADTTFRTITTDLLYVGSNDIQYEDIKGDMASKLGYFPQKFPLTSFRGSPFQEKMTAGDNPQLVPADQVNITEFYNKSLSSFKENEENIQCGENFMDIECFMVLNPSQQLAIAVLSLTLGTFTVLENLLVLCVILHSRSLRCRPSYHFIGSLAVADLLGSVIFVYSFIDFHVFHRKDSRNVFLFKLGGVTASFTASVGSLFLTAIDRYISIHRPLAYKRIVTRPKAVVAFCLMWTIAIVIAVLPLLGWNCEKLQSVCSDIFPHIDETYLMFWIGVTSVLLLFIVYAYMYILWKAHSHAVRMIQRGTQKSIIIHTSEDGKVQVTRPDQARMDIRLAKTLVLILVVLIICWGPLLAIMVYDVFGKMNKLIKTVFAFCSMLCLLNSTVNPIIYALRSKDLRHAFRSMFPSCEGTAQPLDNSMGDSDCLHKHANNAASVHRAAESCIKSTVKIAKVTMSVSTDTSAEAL

C=C(C)[C@@H]1CCC(C)=C[C@H]1c1c(O)cc(CCCCC)cc1O [CBD, cannabidiol]
Conclusions: Is NF-κB inhibitor effect observed? (NF-κB; THC 10 μM or CBD 10 μM alone): Negative
activity at 10 µM (NF-κB; [3]): 136%
activity at 10 µM (NF-κB; [4]): 86.4%
activity at 10 µM (NF-κB; [5]): 106%
Conclusions: Is CB1R antagonist effect observed? (CB1R [1]; CBD 1 μM alone): Negative
activity at 1 µM (CB1R [1]; CBD 1 μM alone, CP55940 = 100%, read-out: Experiment 1 % of activity): 61.3%
activity at 1 µM (CB1R [1]; CBD 1 μM alone, CP55940 = 100%, read-out: Experiment 2 % of activity): 55.9%
activity at 1 µM (CB1R [1]; CBD 1 μM alone, CP55940 = 100%, read-out: Experiment 3 % of activity): 57.4%

C=C(C)[C@@H]1CCC(C)=C[C@H]1c1c(O)cc(CCCCC)c(C(=O)O)c1O [CBDA, cannabidiolic acid]
selectivity for COX-2 than COX-1 inhibition (COX-2): 9 fold

CCCCCCC(C)(C)c1ccc([C@@H]2C[C@H](O)CC[C@H]2CCCO)c(O)c1 [CP]
Conclusions: Is CB1R antagonist effect observed? (CB1R [1]): Negative
activity at 5 µM (CB1R [1]; [3]): 100%
activity at 5 µM (CB1R [1]; [4]): 100%
activity at 5 µM (CB1R [1]; [5]): 100%
Conclusions: Is CB1R agonist effect observed? (CB1R [2]): + (key: +: positive result (CB1R activity ≥2.5-fold increase) are considered agonists of CB1R activity)
Experiment 1 Fold change (CB1R [2]): 2.5 fold
Experiment 2 Fold change (CB1R [2]): 2.5 fold
Experiment 3 Fold change (CB1R [2]): 2.5 fold

COc1cc(/C=C/C(=O)CC(=O)/C=C/c2ccc(O)c(OC)c2)ccc1O [Curcumin, diferuloylmethane (curcumin)]
Conclusions: Is NF-κB inhibitor effect observed? (NF-κB; Curcumin 5 μM, alone or + THC 10 μM or + CBD 10 μM): + (positive result (activity ≤50%) are considered inhibitory of NF-κB activity)
Conclusions: Is NF-κB inhibitor effect observed? (NF-κB; Curcumin 10 μM, alone or + THC 10 μM or + CBD 10 μM): + (positive result (activity ≤50%) are considered inhibitory of NF-κB activity)
Conclusions: Is NF-κB inhibitor effect observed? (NF-κB; Curcumin 15 μM, alone or + THC 10 μM or + CBD 10 μM): + (positive result (activity ≤50%) are considered inhibitory of NF-κB activity)
IC50 (NF-κB; read-out: anti-NF-κB IC50): 3.91 µM
EC50 (CB2R): 5970 µM

C=C[C@@]1(C)CC(=O)[C@]2(O)[C@@]3(C)[C@@H](O)CCC(C)(C)[C@@H]3[C@H](O)[C@H](OC(C)=O)[C@@]2(C)O1 [Forskolin]
activity at 1 µM (CB2R; [3]): 100%
activity at 1 µM (CB2R; [4]): 100%
activity at 1 µM (CB2R; [5]): 100%

CCCCCc1cc(O)c2c(c1)OC(C)(C)[C@@H]1CCC(C)=C[C@@H]21 [THC, tetrahydrocannabinol]
Conclusions: Is NF-κB inhibitor effect observed? (NF-κB; THC 10 μM or CBD 10 μM alone): Negative
Experiment 1 % of activity (NF-κB; [6]): 122.2%
Experiment 2 % of activity (NF-κB; [6]): 84.9%
Experiment 3 % of activity (NF-κB; [6]): 88.8%
Conclusions: Is CB2R agonist effect observed? (CB2R): Negative
Experiment 1 % of activity (CB2R): 54.7%
Experiment 2 % of activity (CB2R): 73.7%
Experiment 3 % of activity (CB2R): 60.3%

CCCCCc1cc2c(c(O)c1C(=O)O)[C@@H]1C=C(C)CC[C@H]1C(C)(C)O2 [THCA, tetrahydrocannabinolic acid]
Conclusions: Is CB2R agonist effect observed? (CB2R): Negative
Experiment 1 % of activity (CB2R): 115.6%
Experiment 2 % of activity (CB2R): 105.6%
Experiment 3 % of activity (CB2R): 124.6%
Conclusions: Is CB1R antagonist effect observed? (CB1R [1]; THCA 10 μM or THC 10 μM alone): Negative
Experiment 1 % of activity (CB1R [1]; [7]): 116.7%
Experiment 2 % of activity (CB1R [1]; [7]): 116.0%
Experiment 3 % of activity (CB1R [1]; [7]): 56.4%
Conclusions: Is CB1R agonist effect observed? (CB1R [2]; THCA 10 μM or THC 10 μM alone): Negative
Experiment 1 Fold change (CB1R [2]; THCA 10 μM or THC 10 μM alone): 0.9 fold
Experiment 2 Fold change (CB1R [2]; THCA 10 μM or THC 10 μM alone): 0.8 fold
Experiment 3 Fold change (CB1R [2]; THCA 10 μM or THC 10 μM alone): 1.1 fold

TNFα
Conclusions: Is NF-κB inhibitor effect observed? (NF-κB; [8]): Negative
Experiment 1 % of activity (NF-κB; [8]): 100.0%
Experiment 2 % of activity (NF-κB; [8]): 100.0%
Experiment 3 % of activity (NF-κB; [8]): 100.0%
